Patent US20150132764A1, “BAG3 AS BIOCHEMICAL SERUM AND TISSUE MARKER” (BIOUNIVERSA S.R.L., priority 2012, published 2015)

How the values were obtained:
J774 A.1 cells [1] = assay: FACS analysis of FITC-rBAG3 binding to J774 macrophages; set-up: species or system murine; settings: for % of positive cells (±S.D.): flow cytometry
Procedure: FIG. 3B: BAG3 binds macrophages. J774 A1 macrophages (1×10^6 cells/ml) were incubated with different concentration of Fitc-BAG3 protein (7, 14 and 70 nm). FITC-BSA (70 nM) was used as a negative control (grey). Cells fluorescence was analyzed by flow cytometry.
rBAG3 binding—J774 A.1 cells were blocked with 2% FBS+0.1% NaN3 in PBS for 15 min on ice and incubated (2.5×105/100 μl) with different concentration of FITC-rBAG3 protein (7, 14 and 70 nm) or FITC-BSA (70 nM) in PBS containing 2% FBS+0.1% NaN3 for 30 min at 4° C. in the dark. After washing with PBS, the cells were resuspended in PBS+2% FBS+0.1% NaN3 and analyzed with a FACScan (BD Biosciences) flow cytometer.

HCMa cells = assay: Confocal direct fluorescence of rBAG3-FITC binding to cardiomyocytes; set-up: species or system Human; settings: FITC-conjugated BAG3, 1 h, FIG. 3A
Source text: FIG. 3A: Confocal microscopy analysis of direct fluorescence performed for detection of rBAG3-FITC binding to HCMa cells (a, b, c) and J774 A1 cells (d, e, f, g, h, i). BAG3 recombinant protein and purified BSA (albumin from bovine serum purchased from SIGMA) were conjugated to FITC using the FluoroTag FITC Conjugation Kit purchased from SIGMA following the manufacturer instructions. Equal amount of rBAG3-FITC (b, e) and BSA-FITC (h) proteins, calculated following the manufacturer instructions, were added in HCM and J774 A1 culture media with 0.1% NaN3 for 1 h. β-integrin was analyzed as control (a, d, g). Cells were analyzed by a Zeiss LSM confocal microscope. Merged images are shown in c, f and i.
Cells were cultured on coverslips in six-well plates to 60-70% confluence and equal amount of rBAG3-FITC and BSA-FITC proteins were added in HCMa and J774 A1 culture media with 0.1% NaN3 for 1 h. […] Samples were analyzed using a confocal laser scanning microscope (Zeiss LSM confocal microscope, Germany). […] For production of figures, brightness and contrast of images were adjusted by taking care to leave a light cellular fluorescence background for visual appreciation of the lowest fluorescence intensity features and to help comparison among the different experimental groups. […]

J774 A.1 cells [2] = assay: FACS competition assay of FITC-rBAG3 binding to J774 macrophages; set-up: species or system murine; settings: 625 nM peptide, then 14 nM FITC-rBAG3, J774 cells
Procedure: In particular J774 cells were incubated with 14 nM FITC-BAG3 protein and with 625 nM of BAG3 peptides (peptide 1, peptide 2, peptide 3, peptide 4 or scrambled peptide) or with 420 nM of F(ab′)2 fragments from anti-BAG3 monoclonal and polyclonal antibodies (mouse monoclonal AC1, AC2 and rabbit polyclonal TOS2). F(ab′)2 fragments from mouse IgG or F(ab′)2 fragments from rabbit IgG were used as a negative control.
Competition—J774 A.1 cells (2.5×105/100 μl) were incubated with 625 nM of BAG3 peptides (peptide 1, peptide 2, peptide 3, peptide 4 or scrambled peptide) or with 420 nM of F(ab′)2 fragments from anti-BAG3 monoclonal and polyclonal antibodies (mouse monoclonal AC1, AC2 and rabbit polyclonal TOS2) or F(ab′)2 fragments from mouse IgG or F(ab′)2 fragments from rabbit IgG in PBS containing 2% FBS+0.1% NaN3 for 30 min on ice. After incubation the cells were washing with PBS and then were incubated with of FITC-rBAG3 protein (14 nM), in PBS containing 2% FBS+0.1% NaN3 for 30 min at 4° C. in the dark. After washing with PBS, the cells were resuspended in PBS+2% FBS+0.1% NaN3 and analyzed by flow cytometer (BD Biosciences).

[3] = molecular target: FITC-conjugated recombinant BAG3 protein (human) (UniProt O95817); assay: flow cytometry competition; 14 nM FITC-rBAG3 on J774 A.1 cells with 420 nM control F(ab')2
[4] = molecular target: surface of J774 A1 macrophages (unidentified BAG3 binding partner) (murine); assay: flow cytometry on J774 A.1 cells, FITC-BSA negative control
[5] = tested on: inducible nitric oxide synthase (iNOS); assay: iNOS expression in J774 A1 macrophages incubated with BAG3 (Western blotting); type: cell-based, murine; settings: J774 A1 cells, 20 hours, FIG. 3C panel a
Procedure: (§1) FIG. 3C: panel a—Analysis of Cox-2 and iNOS levels in J774 A1 macrophages incubated with BAG3. J774 A1 cells at 80% confluency were incubated with control medium, BSA, LPS or rBAG3, for 20 hours. Polymixin was added where indicated to verify that the effects of E. coli-derived rBAG3 were independent from the presence of contaminating endotoxin. Cox-2 and iNOS expression were analyzed in cell lysates by Western blotting.
(§2) Cells were harvested and lysed in a buffer containing 20 mM HEPES (pH 7.5), 150 mM NaCl, 0.1% Triton (TNN buffer) supplemented with a protease inhibitors cocktail (1 mM phenylmethylsulfonyl fluoride, […]) by 3 cycles of freezing and thawing. Soluble proteins were collected after a centrifugation at 10,000 g for 15 min and their amount was determined by Bradford assay (Bio-Rad, Hercules, Calif.). 25 μg of total protein and serum samples (1:2 in PBS-T 0.05%) were run on 8% or 10% SDS-PAGE gels and electrophoretically transferred to nitrocellulose membrane. […] Immunoreactivity was detected by sequential incubation with horseradish peroxidase-conjugated secondary antibodies purchased from Pierce (Rockford, Ill.) and ECL detection reagents purchased from Amersham Life Sciences Inc. (Arlington Heights, Ill., USA).

J774 A.1 cells [6] = assay: Nitrite release from J774 A1 macrophages (Griess reaction); type: cell-based, murine; settings: 24 hours, FIG. 3C panel b
Procedure: FIG. 3C panel b—Analysis of nitrite release from J774 A1 macrophages incubated with BAG3. J774 A1 cells at 80% confluency were incubated with control medium, BSA, LPS or rBAG3 for 24 hours. 100 μl of supernatants from each sample were incubated with 100 μl of Griess reagent; the optical density at 550 nm (OD550) was measured with a Beckman DU62 spectrophotometer. Nitrite concentration was evaluated by comparing the OD550 of the sample with that of a standard curve of sodium nitrite.
Nitrite content (NO2^−), a stable metabolite of NO released by cells in the culture supernatant, was measured in J774 A.1 cells (5×104/in 96-well microplates) treated with LPS (10 ng/ml) or with rBAG3 (7, 14 and 28 nM) or BSA (28 nM) for 24 hours in absence or presence of polymyxin B sulfate (Sigma-Aldrich, St. Louis, Mo., USA) 5 μg/ml. NO2^− amounts were measured by Griess reaction. Briefly, 100 μL of cell culture medium were mixed with 100 μL of Griess reagent—equal volumes of 1% (w:v) sulphanilamide in 5% (v:v) phosphoric acid and 0.1% (w:v) naphtylethylenediamine-HCl—and incubated at room temperature for 10 min, and then the absorbance was measured at 550 nm in a microplate reader Titertek (Dasit, Cornaredo, Milan, Italy). The amount of NO2− (as μM) in the samples was calculated from a sodium nitrite standard curve.

cyclooxygenase (Cox)-2 = assay: Cox-2 expression in J774 A1 macrophages incubated with BAG3 (Western blotting); type: cell-based, murine; settings: J774 A1 cells, 20 hours, FIG. 3C panel a
Procedure: as §1, §2

J774 A.1 cells [7] = assay: IL-6 release from J774 A1 macrophages (ELISA); type: cell-based, murine; settings: FIG. 3C panel c
Procedure: FIG. 3C panel c—Analysis of IL-6 release from J774 A1 macrophages incubated with BAG3. J774 A1 cells at 80% confluency macrophages were incubated with control medium, BSA, LPS or recombinant BAG3 for 5 hours. BAG3 peptides (peptide 1, peptide 2, peptide 3, peptide 4 or scrambled peptide) 625 nM were added where indicated to verify their ability to block BAG3 activity. IL-6 production was measured in cell culture medium using an ELISA test. IL-6 concentration was evaluated by comparing the OD of the sample with that of a standard curve of recombinant IL-6.
IL6 was measured in supernatant of J774 A.1 cells (5×10^4/in 96-well microplates) treated with LPS (10 ng/ml) or with rBAG3 (14 nM) or BSA (14 nM) for 10 or 20 hours in absence or presence of polymyxin B sulfate (5 μg/ml). After treatment 50 μL of cell culture medium were collected and analyzed in triplicate with a mouse IL6 Kit (eBioscience).

[8] = molecular target: surface of J774 A1 macrophages (unidentified BAG3 binding partner) (murine); assay: flow cytometry on J774 A.1 cells, FITC-rBAG3 minus FITC-BSA background
[9] = molecular target: surface of J774 A1 macrophages (unidentified BAG3 binding partner) (murine); assay: flow cytometry on J774 A.1 cells, FITC-rBAG3
[10] = molecular target: surface of J774 A1 macrophages (unidentified BAG3 binding partner) (murine); assay: flow cytometry competition; 14 nM FITC-rBAG3 on J774 A.1 cells with 625 nM peptide

UniProt O95817, sequence (O95817 whole entry): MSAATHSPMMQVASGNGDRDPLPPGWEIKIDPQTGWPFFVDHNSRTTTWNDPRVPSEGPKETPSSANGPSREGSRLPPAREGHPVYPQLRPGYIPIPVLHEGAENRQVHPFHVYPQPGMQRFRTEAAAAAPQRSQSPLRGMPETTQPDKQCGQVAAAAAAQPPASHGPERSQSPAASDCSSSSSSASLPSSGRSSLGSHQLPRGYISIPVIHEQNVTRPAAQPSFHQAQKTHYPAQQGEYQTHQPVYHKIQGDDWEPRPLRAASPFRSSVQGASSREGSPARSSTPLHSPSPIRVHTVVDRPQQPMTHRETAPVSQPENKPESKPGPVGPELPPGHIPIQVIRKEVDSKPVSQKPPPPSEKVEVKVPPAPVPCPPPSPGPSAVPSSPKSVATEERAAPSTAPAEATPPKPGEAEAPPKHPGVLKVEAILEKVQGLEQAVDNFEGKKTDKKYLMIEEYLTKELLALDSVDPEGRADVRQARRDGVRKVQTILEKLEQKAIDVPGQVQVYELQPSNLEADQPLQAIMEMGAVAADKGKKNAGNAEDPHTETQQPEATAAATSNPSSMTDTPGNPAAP

## FITC-rBAG3: BAG3 recombinant protein conjugated to FITC
J774 A.1 cells [1]; FITC-conjugated BAG3, FIG. 3B
  binding to macrophages of the cell line J774 (in words): bound to macrophages
J774 A.1 cells [1]; FITC-rBAG3 14 nM, J774 cells
  % of positive cells (±S.D.): 15.7 (±0.45) %
J774 A.1 cells [1]; FITC-rBAG3 signal minus FITC-BSA signal, J774 cells
  % of positive cells (±S.D.), (FITC-rBAG3)-(FITC-BSA): 11.06 (±0.45) %
HCMa cells
  binding to the cardiomyocyte surface (in words): did not apparently bind

## SSPKSVATEERAAPS (listed as Homo sapiens) [Pep2, 12]
J774 A.1 cells [2]
  Competition assays: % inhibition: 89.1%
  Competition assays: % of positive cells (±S.D.): 1.21 (±0.63) %

## F(ab')2 fragments from mouse IgG
[3]
  % inhibition: 0%
  % of positive cells: 12.3%

## F(ab')2 fragments from rabbit IgG
[3]
  % inhibition: 0%
  % of positive cells: 14.7%

## FITC-conjugated bovine serum albumin (from UniProt P02769 25-607)
[4]
  % of positive cells: 4.04%

## DRDPLPPGWEIKIDPQ (listed as Homo sapiens) [Pepl, 11]
J774 A.1 cells [2]
  Competition assays: % inhibition: 98.4%
  Competition assays: % of positive cells (±S.D.): 0.18 (±0.05) %

## DKGKKNAGNAEDPHT (listed as Homo sapiens) [Pep3, 13]
J774 A.1 cells [2]
  Competition assays: % inhibition: 47.2%
  Competition assays: % of positive cells (±S.D.): 5.86 (±0.43) %

## recombinant BAG3: E. coli-derived recombinant BAG3 protein
[5]
  iNOS levels in macrophages: enhanced
J774 A.1 cells [6]
  release of nitrite: induced the release
Cyclooxygenase (Cox)-2
  Cox-2 levels in macrophages: enhanced
J774 A.1 cells [7]
  release of interleukin (IL)-6: induced the release

## NPSSMTDTPGNPAAP (listed as Homo sapiens) [Pep4, 14]
J774 A.1 cells [2]
  Competition assays: % inhibition: 93.8%
  Competition assays: % of positive cells (±S.D.): 0.68 (±0.20) %

## FITC-conjugated recombinant BAG3 protein (from UniProt O95817 1-575) (ligand)
[8]
  % of positive cells: 11.1%
[9]
  % of positive cells: 15.7%

## FITC-BSA: purified albumin from bovine serum conjugated to FITC, negative control [reference compound]
J774 A.1 cells [1]; FITC-BSA negative control, J774 cells
  % of positive cells (±S.D.): 4.04 (±0.06) %

## SSPKSVATEERAAPS [BAG3 peptide 2]
[10]
  % inhibition: 89.1%
  % of positive cells: 1.21%

## DKGKKNAGNAEDPHT [BAG3 peptide 3]
[10]
  % inhibition: 47.2%
  % of positive cells: 5.86%

## NPSSMTDTPGNPAAP [BAG3 peptide 4]
[10]
  % inhibition: 93.8%
  % of positive cells: 0.68%

## DRDPLPPGWEIKIDPQ [BAG3 peptide 1]
[10]
  % inhibition: 98.4%
  % of positive cells: 0.18%
